In patent publication US6818648B2, “Aryloxy- and arylthiosubstituted pyrimidines and triazines and derivatives thereof” (Bristol-Myers Squibb Pharma, priority 1996, dated 2004):

## C=C(C)c1cc(Br)c(Oc2nc(C)nc(N3CCOCC3)n2)c(OC)c1 [Example 6, 2-[2-bromo-6-methoxy-4-(1-methylethenyl)phenoxy]-4-methyl-6-(4-morpholinyl)-1,3,5-triazine]
  melting point: 131 to 133 °C

## C=C(C)c1cc(Br)c(Oc2nc(C)nc(N3CCOCC3)n2)c(OC)c1 [Example 5, 2-[2-bromo-6-methoxy-4-(1-methylethenyl)phenoxy]-4-methyl-6-(4-morpholinyl)-1,3,5-triazine]
  melting point: 63 to 67 °C
